Test results: article PMC10374545, “A small molecule inhibitor of PTP1B and PTPN2 enhances T cell anti-tumor immunity” (Nature Communications, 2023)
Several values for one entry are separate records, joined by “and”; a condition that tells them apart may be missing. Identical values can stand only once.

Columns and labels:
AT3-OVA mammary tumors = experiment: Tumor-infiltrating lymphocytes in AT3-OVA tumors of Lck-Cre;Ptpn2fl/fl mice; type: in vivo, mouse; parameters: NK cells / Tregs / MDSCs / CD4 EM / CD8 EM / B cells / IFNg TNF / GRZMB: unit not given here
Procedure: Tumor-bearing mice were sacrificed and tumors were excised and digested at 37 °C for 30 min using a cocktail of 1 mg/ml collagenase type IV (Worthington Biochemicals) and 0.02 mg/ml DNase I (Sigma-Aldrich) in DMEM supplemented with 2% (v/v) FBS. Cells were passed through a 70 μm cell strainer (BD Biosciences) twice and processed for flow cytometry. For assessing T cell activation, cells were surface stained with fluorophore-conjugated antibodies to CD62L, CD44, PD-1, and TIM-3. For the assessment of NK cells, B cells, myeloid-derived suppressor cells (MDSCs), dendritic cells (DCs), and tumor-associated macrophages, cells were surface stained with fluorophore-conjugated antibodies to NK1.1, TCRβ, CD19, CD11b, CD11c, F4/80, Ly6C and Ly6G. For the detection of intracellular cytokines TNF and IFNγ, T cells were stimulated with PMA (20 ng/ml; Sigma-Aldrich) and ionomycin (1 μg/ml; Sigma-Aldrich) in the presence of GolgiPlug™ and GolgiStop™ (BD Biosciences) for 4 h at 37 °C in complete T cell medium. For the intracellular detection of granzyme B, cells were processed untreated without the addition of BD GolgiPlug™ and BD GolgiStop™.

[1] = Morbidity and overt toxicity in treated tumor-bearing mice
Procedure: Control animals received an injection at the same time of 200 μl of saline. Stock solutions were stored at −80 °C and thawed before each administration.

[2] = Serum anti-nuclear antibodies (ANA) ELISA; type: in vivo, mouse
Description: CD3ε (BD Biosciences Cat# 553058) and CD28 (BD Biosciences Cat# 557393) antibodies for T cell stimulation and NK1.1 (BD Biosciences Cat# 564143) antibody for NK cell stimulation were purchased from BD Biosciences. Ly49H (clone 3D10, BioLegend Cat# 144702) antibody for NK stimulation was from BioLegend. For analyzing T cell signaling, p-(Y418) SFK (Thermo Fisher Scientific Cat# 14-9034-82) was from Invitrogen and p-(Y694) STAT-5 (D47E7) XP® (Cell Signaling Technology Cat# 4322) was from Cell Signaling. Recombinant human IL-2, recombinant murine IL-7 and recombinant human IL-15 were purchased from the PeproTech, recombinant mouse IL-12 and recombinant human IL-18 were from Australia Biosearch and […] (N4) from Mimotopes. InVivoMAb anti-mouse PD-1 (Bio X Cell Cat# BE0146) and InVivoMAb rat IgG2a isotype control (Bio X Cell Cat# BE0251) were purchased from Bio X Cell. DNase I was from Sigma-Aldrich. Rabbit monoclonal PTP1B (Abcam Cat# ab244207) antibody for flow cytometry was from Abcam and mouse monoclonal PTPN2 6F3 antibody for immunoblotting and flow cytometry was from MédiMabs (Cat# MM-019-P). Mouse anti-actin (Thermo Fisher Scientific Cat# MA5-11866) from Invitrogen and mouse α-tubulin (Sigma-Aldrich Cat# T5168) was from Merck. The mouse anti-nuclear antibodies Ig’s (total IgA+G + M) ELISA Kit was from Alpha Diagnostic Int. and the Transaminase II Kit from Wako Pure Chemicals. FBS was purchased from Thermo Scientific, RPMI 1640, DMEM, MEM, HEPES, non-essential amino acids, penicillin/streptomycin, and sodium-pyruvate were from Invitrogen, collagenase type IV was purchased from Worthington Biochemical and ABBV-CLS-484 was from MedChemExpress (Cat# HY-145923).

AT3 mammary tumors [3] = experiment: AT3 tumor growth, Compound 182 with α-PD-1 checkpoint blockade; type: in vivo, mouse
Procedure: (§1) Male or female mice were injected subcutaneously with 5 × 10^5 MC38 tumor cells resuspended in 100 μl D-PBS into the flank. Alternatively, female mice were injected orthotopically with 5 × 10^5 AT3 or AT3-OVA or PTPN2-deleted AT3 or AT3-OVA tumor cells resuspended in 20 μl D-PBS into the fourth mammary fat pad. Tumor sizes were measured in two dimensions (mm^2) using electronic callipers two to three times per week as soon as tumors were palpable (20–25 mm^2).
In addition, mice received four intraperitoneal injections of α-PD-1 (200 μg in 200 μl D-PBS; clone RMP1-14), or rat IgG2a isotype control (100 μg in 200 μl D-PBS, Bio X Cell) twice per week.

[4] = test system: p-STAT-1 and CD3 in AT3-OVA tumors; experiment: Immunohistochemistry for p-STAT-1 (Y701) and CD3 in AT3-OVA tumors; type: in vivo, mouse; conditions: 10 mg/kg i.v.
Procedure: For the immunohistochemistry analysis of mammary tumor samples, samples were dissected and fixed in 10% formalin. After fixation, the tissues were embedded in paraffin and sectioned onto microscopic glass slides at 4 μm thickness per section. After deparaffinization and rehydration, the slides were subjected to antigen retrieval in Tris/EDTA buffer (pH 8.0) at 120 °C for 10 min and then cooled down to room temperature. The slides were blocked with 5% (v/v) normal goat serum (NGS) containing 0.1% (v/v) TritonX-100 in PBS for 1 h at room temperature and then incubated with primary antibody p-STAT-1 (Tyr701) (1:500; Cell Signaling Technology), or CD3ε (1:1000; Dako) at room temperature for 1 h. Slides were then washed with PBS containing 0.05% (w/v) Tween-20 and visualized using a rabbit IgG VECTORSTAIN ABC Elite and DAB (3,3′‐diaminobenzidine) Peroxidase Substrate Kit (Vector Laboratories, UK) and counterstained with haematoxylin. Slides were imaged on an Olympus CX43 microscope (Olympus, Tokyo, Japan).

AT3 mammary tumors [5] = experiment: AT3 mammary tumor growth in C57BL/6 mice; type: in vivo, mouse
Procedure: as §1

[6] = Lck-Cre;Ptpn2fl/fl mice, individual mice (Figure 7D), listed as CMP-182
[7] = tumour-infiltrating cells, Lck-Cre;Ptpn2fl/fl mice n=6, individual mice (Figure 7C), listed as CMP-182

CC(C)(O)CCOc1ccc2cc(O)c(N3CC(=O)NS3(=O)=O)c(F)c2c1 [Compound 182, 5-(1-Fluoro-3-hydroxy-7-(3-hydroxy-3-methylbutoxy)naphthalen-2-yl)−1,2,5-thiadiazolidin-3-one 1,1-dioxide]
IFNγ+TNF+ infiltrating CD8+ T cells in Lck-Cre;Ptpn2fl/fl mice (AT3-OVA mammary tumors; 10 mg/kg i.v.): significantly increased
GRZMB (AT3-OVA mammary tumors; [6]): 75.7 and 29.8 and 80.2 and 60 and 76.3 and 38.3
IFNg TNF (AT3-OVA mammary tumors; [6]): 26.1 and 36.3 and 38 and 37.5 and 35.3 and 36.7
TILs in AT3-OVA tumors of Lck-Cre;Ptpn2fl/fl mice (AT3-OVA mammary tumors; compared with untreated Lck-Cre;Ptpn2fl/fl mice): not accompanied by any significant changes
B cells (AT3-OVA mammary tumors; [7]): 170392 and 46995.6 and 105275 and 126695 and 155871 and 80840.6
CD4 EM (AT3-OVA mammary tumors; [7]): 52213.7 and 43853.2 and 131869 and 64047.3 and 133510 and 49758.5
CD8 EM (AT3-OVA mammary tumors; [7]): 137803 and 79204.9 and 701666 and 167038 and 463610 and 106200
MDSCs (AT3-OVA mammary tumors; [7]): 220000 and 235417 and 32287.6 and 56721.3 and 90563.2 and 25765.3
NK cells (AT3-OVA mammary tumors; [7]): 58097.7 and 15907.7 and 22173.4 and 86915 and 66469.7 and 20906.1
Tregs (AT3-OVA mammary tumors; [7]): 31347.8 and 26539.2 and 15097.8 and 25883.4 and 26206.9 and 21641.1
morbidity or systemic inflammation ([1]; AT3-OVA tumor-bearing mice, 10 mg/kg i.v.): not accompanied by overt signs of morbidity or systemic inflammation
overt toxicities ([1]; dosing every two days): did not result in any overt toxicities
serum anti-nuclear antibodies (ANA) ([2]; 10 mg/kg i.v.): unaltered
Serum ANA ([2]; Figure 10C, individual mice, listed as CMP-182): 77.3077 and 275 and 43.4615 and 42.6923 and 47.3077 and 142.692 and 64.2308
ANA Serum, median ([2]; Figure 10C, median, n=8): 70.77, n=8
response of AT3 tumors to PD-1 checkpoint blockade (AT3 mammary tumors [3]; 10 mg/kg i.v. every 2 days with α-PD-1 200 μg i.p. twice per week): rendered otherwise largely resistant AT3 tumors sensitive
AT3 tumor growth, combination therapy (AT3 mammary tumors [3]; Compound 182 10 mg/kg i.v. + α-PD-1 200 μg i.p.): marked repression
Tumour weights (AT3 mammary tumors [3]; Figure 9C, AT-3, individual mice, listed as CMP-182, in mg (unit assumed)): 195 and 335 and 220 and 301 and 250 and 332
p-STAT-1 signaling and T cell infiltrates in AT3-OVA tumors of Lck-Cre;Ptpn2fl/fl mice [4]: did not further increase
p-STAT-1 staining and abundance of CD3ε+ T cells in AT3-OVA tumors ([4]; C57BL/6 mice): increased
Tumour weights AT-3, individual mice (AT3 mammary tumors [5]; 10 mg, Figure 4D, listed as CMP-182, in mg (unit assumed)): 433 and 615 and 255 and 610 and 642 and 344
Tumour growth AT-3, individual mice (AT3 mammary tumors [5]; 10 mg, day 10 post injection, listed as CMP-182, in mm2): 18.92 and 38.28 and 21.93 and 30.78 and 35.75 and 25.97
Tumour growth AT-3, individual mice (AT3 mammary tumors [5]; 10 mg, day 13 post injection, listed as CMP-182, in mm2): 24.01 and 35.1 and 25.44 and 30.24 and 37.12 and 27.5
Tumour growth AT-3, individual mice (AT3 mammary tumors [5]; 10 mg, day 16 post injection, listed as CMP-182, in mm2): 28.5 and 42.21 and 23.76 and 29.58 and 41.04 and 36.4
Tumour growth AT-3, individual mice (AT3 mammary tumors [5]; 10 mg, day 19 post injection, listed as CMP-182, in mm2): 40.71 and 52.8 and 61.32 and 46.5 and 44.4 and 42.9
Tumour growth AT-3, individual mice (AT3 mammary tumors [5]; 10 mg, day 22 post injection, listed as CMP-182, in mm2): 40.95 and 59.13 and 71.25 and 50.16 and 54.4 and 49.4
Tumour growth AT-3, individual mice (AT3 mammary tumors [5]; 10 mg, day 25 post injection, listed as CMP-182, in mm2): 70.31 and 63.7 and 89.04 and 67.08 and 73.15 and 57.67
Tumour growth AT-3, individual mice (AT3 mammary tumors [5]; 10 mg, day 27 post injection, listed as CMP-182, in mm2): 77.08 and 74.4 and 63 and 65.86 and 98.28 and 55.44
growth of orthotopic AT3 mammary tumors (AT3 mammary tumors [5]; 10 mg/kg i.v. every 2 days): repressed the growth
Tumour weights, median (AT3 mammary tumors [5]; AT-3 tumours, CMP-182 10 mg, n=6, Figure 4D): 521.5, n=6
Tumour size, predicted column mean over all time points (AT3 mammary tumors [5]; AT-3 tumours, CMP-182 10 mg, n=6, Figure 4D, in mm2): 48.13
Tumour size, Mean 2 (AT3 mammary tumors [5]; AT-3 tumours, CMP-182 10 mg, n=6, time point 10, Figure 4D, in mm2): 28.61
Tumour size, Mean 2 (AT3 mammary tumors [5]; AT-3 tumours, CMP-182 10 mg, n=6, time point 13, Figure 4D, in mm2): 29.9
Tumour size, Mean 2 (AT3 mammary tumors [5]; AT-3 tumours, CMP-182 10 mg, n=6, time point 16, Figure 4D, in mm2): 33.58
Tumour size, Mean 2 (AT3 mammary tumors [5]; AT-3 tumours, CMP-182 10 mg, n=6, time point 19, Figure 4D, in mm2): 48.11
Tumour size, Mean 2 (AT3 mammary tumors [5]; AT-3 tumours, CMP-182 10 mg, n=6, time point 22, Figure 4D, in mm2): 54.22
Tumour size, Mean 2 (AT3 mammary tumors [5]; AT-3 tumours, CMP-182 10 mg, n=6, time point 25, Figure 4D, in mm2): 70.16
Tumour size, Mean 2 (AT3 mammary tumors [5]; AT-3 tumours, CMP-182 10 mg, n=6, time point 27, Figure 4D, in mm2): 72.34
